As a reminder, the IC50 is the concentration that inhibits the measured activity by half. Read a low IC50 as greater potency. As usually defined, the Cmax is the highest concentration seen after dosing. The term AUC(0-inf) denotes total exposure, with the tail of the curve extrapolated. A low value points to less exposure. As a reminder, the AUC(0-t) is the area under the concentration-time curve up to a stated or last time point. A high value points to more exposure. Usually Tmax stands for the time at which the peak concentration occurs. What is called half-life is how long it takes for the measured level to halve. Low readings indicate fast loss, high ones slow loss. For orientation: bioavailability means the share of a dose that reaches the circulation, judged against a reference dose that is usually intravenous.

This note sets out measurements from patent US10065934B2, “Substituted urea derivatives and pharmaceutical uses thereof” (SUNSHINE LAKE PHARMA CO., LTD., priority 2014, dated 2018).

One data set addresses T1, FLT3 kinase (Homo sapiens, UniProt P36888).
T1 sequence (P36888 27-993): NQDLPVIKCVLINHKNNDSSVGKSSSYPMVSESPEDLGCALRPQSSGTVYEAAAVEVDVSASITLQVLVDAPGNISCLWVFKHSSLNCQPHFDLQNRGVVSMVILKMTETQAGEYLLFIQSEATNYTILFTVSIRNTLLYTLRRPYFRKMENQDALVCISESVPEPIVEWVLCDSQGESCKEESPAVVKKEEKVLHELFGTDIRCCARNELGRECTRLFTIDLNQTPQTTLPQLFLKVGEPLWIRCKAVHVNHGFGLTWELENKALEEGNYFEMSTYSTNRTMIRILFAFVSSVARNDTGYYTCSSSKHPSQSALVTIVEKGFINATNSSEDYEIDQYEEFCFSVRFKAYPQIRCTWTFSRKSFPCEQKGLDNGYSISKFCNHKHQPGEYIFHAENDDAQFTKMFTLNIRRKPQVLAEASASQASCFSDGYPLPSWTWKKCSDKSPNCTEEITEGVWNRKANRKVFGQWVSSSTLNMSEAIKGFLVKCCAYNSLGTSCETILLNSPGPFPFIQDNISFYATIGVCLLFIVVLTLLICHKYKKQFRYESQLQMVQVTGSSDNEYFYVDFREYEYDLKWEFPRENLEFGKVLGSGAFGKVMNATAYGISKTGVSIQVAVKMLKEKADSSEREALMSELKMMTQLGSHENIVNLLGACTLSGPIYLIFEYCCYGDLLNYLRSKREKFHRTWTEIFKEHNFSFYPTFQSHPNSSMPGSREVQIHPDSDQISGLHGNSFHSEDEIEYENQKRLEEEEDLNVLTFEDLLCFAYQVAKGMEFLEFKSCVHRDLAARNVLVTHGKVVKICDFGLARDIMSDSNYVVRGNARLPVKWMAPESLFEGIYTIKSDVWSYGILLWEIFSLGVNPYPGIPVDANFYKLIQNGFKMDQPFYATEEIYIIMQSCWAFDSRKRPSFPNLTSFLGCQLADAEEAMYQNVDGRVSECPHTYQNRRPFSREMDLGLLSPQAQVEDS
The experiment in a line: In vitro enzymatic inhibitory activity (kinase reaction, FAM-labeled peptide). The data set is classed as biochemical. The following applies: in vitro enzymatic inhibition.

The nature of data set [1]: Evaluation of pharmacokinetic activity in male SD rats (iv and oral). The data set is classed as in vivo. How it is done:
1. Preparation of the Test Compound Solutions
The test compound solutions were prepared using appropriate amounts of 5% DMSO, 5% KolliphorHS15 and 90% Saline to dissolve each compound completely.
140-190 g male SD rats were randomly divided into two groups. One group was administered through intravenous drug delivery with the dosage of 1.0 or 2.0 mg/kg, and the other group was administered by oral with the dosage of 5.0 mg/kg. For intravenous administration, caudal vein blood samples at the time points of 0.0833, 0.25, 0.5, 1.0, 2.0, 4.0, 6.0, 8.0 and 24 h were collected after drug administration (the time point of drug administration was set as 0 h); and for oral administration, caudal vein blood samples at the time points of 0.25, 0.5, 1.0, 2.0, 4.0, 6.0, 8.0 and 24 h were collected after drug administration (the time point of drug administration was set as 0 h). Appropriate range of standard curve was established according to the sample concentration, and the test compound concentrations in plasma sample were measured by LC-MS/MS analysis. Pharmacokinetic parameters were calculated by non-compartmental method using WinNonLin 6.3 software based on drug concentration-time curves.

The test system of the next data set is MV-4-11 cell. Kind of data set: In vitro cytology inhibitory activity (MV-4-11 cell proliferation, cell viability luminescence). The data set is classed as cell-based. The settings on record: Homo sapiens, MV4-11; MV-4-11 cells, 72 h incubation. How it is done: Cell assay condition was shown below:
a. A complete medium was prepared and mixed well. b. Cell was recovered, and cell lines of between about two generations in good condition of growth were selected. c. The cell culture flasks were removed from the incubator, and the labeled cell name on the bottles, culture medium type and cell algebra were checked. d. The cell suspension was pipette into a centrifuge tube, and centrifuged at 800-1000 rpm for 3-5 minutes. e. Cell supernatant of the centrifuge tube was aspirated. f. Appropriate volume of culture medium was added into the centrifuge tube, and the cells were resuspended by gentle pipetting uniform. g. Vi-Cell XR cytometer was used for count. h. The cell suspension was adjusted to the appropriate concentration. i. The cell suspension was added to the bottom wall of the white 96-well plate, 100 microliters/well. Cells name, kind of board density and date were detailed labeled, and the culture plate was placed in CO2 incubator overnight.
2. Preparation and Addition of the Test Compounds
i) Preparation of test compound plates by diluting to 10 concentrations with DMSO: first, the test compound stock solution was prepared by dissolving a weighed compound in DMSO to a concentration of 10 mM, and then diluted to the concentration of 4 mM, which was then diluted to the concentration of 0.4 mM used as the highest concentration for testing with DMSO. The highest concentration was sequentially followed by 3-fold dilution for a total of 10 concentrations. Staurosporine was the positive control drug. ii) Addition of test compounds: a. 0.5 μL of test compound prepared above in compound plate was added into the cell culture plate that had been incubated overnight. Then the culture plate was incubated in an incubator at 37° C. for 72 hours.
3. Detection and Analysis
a. 72 hours after the compound treatment, cells was observed under an inverted microscope morphology, and cell growth state in DMSO control well was normal, there was no contamination. b. The cell culture plate was placed in equilibrium at room temperature for 30 minutes. c. The cell viability detection reagent at 100 μL/well was placed into culture plate. d. The mixture in culture plate was mixed two minutes in the vibration plate machine to induce cell lysis. e. 96-well plate was placed for 10 minutes at room temperature, making it stable luminescent signal. f. White base film was pasted on the bottom of the culture plate, and the plate was tested by using Flexstation3 (related to: light, integration time 500 ms). g. Experimental results were recorded and analyzed.

Where two headings read alike, the source gives them in different places.

Take `CC(C)(C)c1cc(NC(=O)Nc2ccc(C#Cc3ccc(OCCCN4CCOCC4)c(Cl)c3)cc2)no1` [Example 2, 1-(5-(tert-Butyl)isoxazol-3-yl)-3-(4-((3-chloro-4-(3-morpholinopropoxy)phenyl)ethynyl)phenyl) urea]: on FLT3 kinase, the half-maximal inhibitory concentration (IC50) is 75 nM.
On FLT3 kinase, `CC(C)(C)c1cc(NC(=O)Nc2ccc(C#Cc3ccc(OCCCN4C[C@@H]5OCCO[C@@H]5C4)cc3)cc2)no1` [Example 11, 1-(5-(tert-butyl)isoxazol-3-yl)-3-(4-((4-(3-((4aR,7aS)-tetrahydro-2H-[1,4]dioxino[2,3-c]pyrrol-6(3H)-yl)propoxy)phenyl)ethynyl)phenyl)urea] returned an IC50 of 169 nM.
As for `CC(C)(C)c1cc(NC(=O)Nc2ccc(C#Cc3ccc(OCCCN4CCOCC4)c(C(F)(F)F)c3)cc2)no1` [Example 3, 1-(5-(tert-Butyl)isoxazol-3-yl)-3-(4-((4-(3-morpholinopropoxy)-3-(trifluoromethyl)phenyl)ethynyl)phenyl)urea], it took 62 nM to reach half-maximal inhibition against FLT3 kinase (IC50).
As for `CC(C)(C)c1cc(NC(=O)Nc2ccc(C#Cc3cnn4c(OCCCN5CCOCC5)ccnc34)cc2)no1` [Example 15, 1-(5-(tert-Butyl)isoxazol-3-yl)-3-(4-((7-(3-morpholinopropoxy)pyrazolo[1,5-a]pyrimidin-3-yl)ethynyl)phenyl)urea], inhibition at FLT3 kinase was half-maximal at 102 nM (IC50).
Take `CC(C)(C)c1cc(NC(=O)Nc2ccc(C#Cc3ccc(OCCN4C[C@@H]5OCCO[C@@H]5C4)cc3)cc2)no1` [Example 24, 1-(5-(tert-Butyl)isoxazol-3-yl)-3-(4-((4-(2-((4aR,7aS)-tetrahydro-2H-[1,4]dioxino[2,3-c]pyrro 1-6(3H)-yl)ethoxy)phenyl)ethynyl)phenyl)urea]: the IC50 at FLT3 kinase is 160 nM. Besides, in data set [1] (po, 5 mg/kg), the “AUClast” value was 6770 ng·h/mL, the “Cmax” value was 862 ng/mL and the “T1/2” value worked out at 3.9 h. Besides, in data set [1] (rat, plasma, iv, 1 mg/kg), the AUC(0-inf) is 2160 ng·h/mL, the AUC(0-t) was determined as 2130 ng·h/mL, the Tmax came out at 0.083 h and the half-life was 4.51 h. The Cmax in data set [1] (rat, plasma, iv, 1 mg/kg, read-out: Cmax) was 1340 ng/mL. For the same molecule, in data set [1] (rat, plasma, iv, 1 mg/kg, read-out: Vss), the Vd was 1.69 L/kg. The same molecule came in with a bioavailability in data set [1] (rat, plasma, po 5 mg/kg vs iv 1 or 2 mg/kg) of 63.6%. In data set [1] (rat, plasma, po, 5 mg/kg), the AUC(0-inf) came out at 6870 ng·h/mL and the Tmax is 4 h.
`CN(C)C1CCN(CCOc2ccc(C#Cc3ccc(NC(=O)Nc4cc(C(C)(C)C)on4)cc3)cc2)CC1` [Example 14, 1-(5-(tert-Butyl)isoxazol-3-yl)-3-(4-((4-(2-(4-(dimethylamino)piperidin-1-yl)ethoxy)phenyl)ethynyl)phenyl)urea]: the IC50 against FLT3 kinase came out at 72 nM; with MV-4-11 cell it was 11.4 nM.
Consider `CC(C)(C)c1cc(NC(=O)Nc2ccc(C#Cc3cnn4ccc(OCCCN5CCOCC5)nc34)cc2)no1` [Example 6, 1-(5-(tert-Butyl)isoxazol-3-yl)-3-(4-((5-(3-morpholinopropoxy)pyrazolo[1,5-a]pyrimidin-3-yl)ethynyl)phenyl)urea], for which the values for the IC50 against FLT3 kinase and with MV-4-11 cell were 94 nM and 3.1 nM, respectively.
`CC(C)(C)c1cc(NC(=O)Nc2ccc(C#Cc3ccc(OCCN4CCOCC4)cc3)cc2)no1` [Example 25, 1-(5-(tert-Butyl)isoxazol-3-yl)-3-(4-((4-(2-morpholinoethoxy)phenyl)ethynyl)phenyl)urea]: at FLT3 kinase, half-maximal inhibition (IC50) required 84 nM.
With `CN1CCN(CCCOc2ccc(C#Cc3ccc(NC(=O)Nc4cc(C(C)(C)C)on4)cc3)cc2)CC1` [Example 13, 1-(5-(tert-Butyl)isoxazol-3-yl)-3-(4-((4-(3-(4-methylpiperazin-1-yl)propoxy)phenyl)ethynyl)phenyl)urea], the half-inhibitory concentration (IC50) was found to be 23 nM at FLT3 kinase and 2.4 nM in the data set with MV-4-11 cell.
Take `CC(C)(C)c1cc(NC(=O)Nc2ccc(C#Cc3ccc(OCCCN4CCC5(COC5)C4)cc3F)cc2)no1` [Example 8, 1-(4-((4-(3-(2-Oxa-6-azaspiro[3.4]octan-6-yl)propoxy)-2-fluorophenyl)ethynyl)phenyl)-3-(5-(tert-butyl)isoxazol-3-yl)urea]: the IC50 at FLT3 kinase was 61 nM; with MV-4-11 cell it was 3.4 nM.
`CC(C)(C)c1cc(NC(=O)Nc2ccc(C#Cc3ccc(OCCCN4CCOCC4)c(F)c3)cc2)no1` [Example 1, 1-(5-(tert-Butyl)isoxazol-3-yl)-3-(4-((3-fluoro-4-(3-morpholinopropoxy)phenyl)ethynyl)phenyl)urea]: the IC50 against FLT3 kinase stood at 115 nM.
For the molecule `CN1CCN(CCOc2ccc(C#Cc3ccc(NC(=O)Nc4cc(C(C)(C)C)on4)cc3)cc2)CC1` [Example 12, 1-(5-(tert-Butyl)isoxazol-3-yl)-3-(4-((4-(2-(4-methylpiperazin-1-yl)ethoxy)phenyl)ethynyl)phenyl)urea], the results for the IC50 on FLT3 kinase and in the data set on MV-4-11 cell were 28 nM and 1.6 nM, respectively.
At FLT3 kinase, `CC(C)(C)c1cc(NC(=O)Nc2ccc(C#Cc3ccc(OCCCN4CCOCC4)cc3Cl)cc2)no1` [Example 5, 1-(5-(tert-Butyl)isoxazol-3-yl)-3-(4-((2-chloro-4-(3-morpholinopropoxy)phenyl)ethynyl)phenyl)urea] showed an IC50 of 189 nM.
Turning to `CC(C)(CO)c1cc(NC(=O)Nc2ccc(C#Cc3ccc(OCCC[N+]4([O-])CCOCC4)cc3F)cc2)no1` [Example 89, 4-(3-(3-Fluoro-4-((4-(3-(5-(1-hydroxy-2-methylpropan-2-yl)isoxazol-3-yl)ureido)phenyl)ethynyl)phenoxy)propyl)morpholine 4-oxide], the IC50 in the data set with MV-4-11 cell came out at 4.8 nM.
`CC(C)(CO)c1cc(NC(=O)Nc2ccc(C#Cc3ccc(OCCCN4CCOCC4)cc3F)cc2)no1` [Example 85, 1-(4-((2-Fluoro-4-(3-morpholinopropoxy)phenyl)ethynyl)phenyl)-3-(5-(1-hydroxy-2-methylpropan-2-yl)isoxazol-3-yl)urea] yielded an IC50 in the data set on MV-4-11 cell of 1.6 nM.
In the data set on MV-4-11 cell, `CC(C)(CO)c1cc(NC(=O)Nc2ccc(C#Cc3ccc(OCCC[N+]4([O-])CCOCC4)cc3)cc2)no1` [Example 88, 4-(3-(4-((4-(3-(5-(1-Hydroxy-2-methylpropan-2-yl)isoxazol-3-yl)ureido)phenyl)ethynyl)phenoxy)propyl)morpholine 4-oxide] gave an IC50 of 1.8 nM.
At FLT3 kinase, `COc1cc(C#Cc2ccc(NC(=O)Nc3cc(C(C)(C)C)on3)cc2)ccc1OCCCN1CCOCC1` [Example 20, 1-(5-(tert-Butyl)isoxazol-3-yl)-3-(4-((3-methoxy-4-(3-morpholinopropoxy)phenyl)ethynyl)phenyl)urea] registered an IC50 of 110 nM.
